# Measurements reported in US20100254942A1, “HEPATITIS C ANTIVIRAL COMPOSITIONS AND METHODS” (BIOTRON LIMITED, priority 2007, published 2010).
# “Also recorded” adds a separate entry of the source. Read-outs that look alike come from different tables or passages of the source.
# Experiments:
# GBV-B = GBV-B replication in primary marmoset hepatocytes (viral RNA by real-time RT-PCR); format: cell-based
# Source text: GBV-B is the most closely related flavivirus to HCV, sharing 27-33% nucleotide sequence identity and 28% amino acid similarity over the complete polypeptide sequence. This virus represents an excellent surrogate system for HCV because it infects small New World primates and replicates efficiently in vitro in primary marmoset hepatocyte (PMH) cultures. The GBV-B homologue of HCV p7 is called p13. It is shown herein that a synthetic peptide corresponding to the two C-terminal transmembrane helices of p13 (which share the greatest homology to p7) forms a cation selective ion channel that, like the p7 channel, is blocked by amantadine (Premkumar et al., 2006). […] These observations confirm that the two homologous channels share similar, but not identical, structural features.
# Selected BIT compounds—identified by bacterial assay screening for inhibitors of HCV p7—were tested for ability to inhibit GBV-B replication in primary marmoset hepatocytes (see FIG. 1). The hepatocytes were inoculated 3-days after plating with 10× TCID50 of GBV-B positive marmoset serum. […] was adsorbed for two hours, and then the cells were washed three times and cultured for two days in fresh serum-free medium (SFM) supplemented with hormones and growth factors. Virus released to the culture supernatant was measured as viral RNA copy number, as determined by real-time RT-PCR. […]
# [1] = system: Madin-Darby bovine kidney (MDBK) cells; experiment: Drug cytotoxicity in uninfected MDBK cells; format: cell-based; settings: uninfected MDBK cells
# Source text: (§1) A virus-induced cytopathogenic effects (CPE)-inhibition assay procedure was employed to evaluate compounds for antiviral activity against bovine viral diarrhea virus (BVDV) strain NADL, in Madin-Darby bovine kidney (MDBK) cells passaged in T-75 flasks (1, 2). Antiviral assays were designed to test six half-log concentrations of each compound in triplicate against the challenge virus. Cell controls (CC) containing medium alone, virus-infected cell controls (VC) containing medium and virus, drug cytotoxicity controls containing medium and each drug concentration, reagent controls containing culture medium only (no cells), and drug colorimetric controls containing drug and medium (no cells) are run simultaneously with the test samples. Human interferon-α 2b was used as a positive control compound. On the day preceding the assay, the cells were trypsinized, pelleted, counted and resuspended at 1×10^4/well in tissue culture medium in 96-well flat bottom tissue culture plates in a volume of 100 μl per well. One day following plating of cells, the wells were washed and the medium was replaced with complete medium (2% serum) containing various concentrations of test compound diluted in medium in a half-log series. A pre-titered aliquot of virus was removed from the freezer (−80° C.) just before each experiment. The virus was diluted into tissue culture medium such that the amount of virus added to each well would give complete cell killing at 6-7 days post-infection. The plates were incubated at 37° C. in a humidified atmosphere containing 5% CO2 until maximum CPE is observed in the untreated virus control cultures (˜day 7) Inhibition of CPE by the compound was determined using Cell Titer 96 (Promega). A colorimetric method for determining the number of viable cells was used. A computer program was utilized to calculate the percent of CPE reduction of the virus-infected wells and the percentage cell viability of uninfected drug control wells. […] A therapeutic (selectivity) index (TI50) for each active compound was determined by dividing the TC50 by the IC50.
# (§2) Drug cytotoxicity was measured separately in uninfected cells. Eleven BIT compounds were tested in the first experiment in which the compounds were added to the cells just prior to infection and were maintained throughout the entire experiment. Two of them, BIT225 and BIT314 returned sub-micromolar IC50 values (see Table 2 below).
# [2] = system: bovine viral diarrhea virus (BVDV) strain NADL; experiment: BVDV CPE-inhibition assay in MDBK cells; format: cell-based; settings: for EC50: read-out: EC50
# Experimental: The antiviral evaluation of selected BIT compounds against BVDV was outsourced to Southern Research Institute (SRI), Fredrick Md. USA. A simple cytoprotection format is used in which the antiviral efficacy of the compounds is assessed by their ability to reduce the cytopathic effect of BVDV infection in Madin-Darby bovine kidney cells (Buckwold et al., 2003)
# as §1, §2
# [3] = target: T1, HCV p7 ion channel protein (Hepatitis C virus genotype 1a, UniProt P27958); experiment: Bacterial bioassay: growth of E. coli expressing HCV p7; format: cell-based; set-up: scale not given here; settings: cumulative averaged scores; result above zero indicates potential anti-viral activity
# T1 construct: codons were optimised for expression of the p7 protein in E. coli; expressed in transfected cells; host or cells: E. coli carrying plasmid pPLp7 (pPL451 backbone, temperature-inducible)
# Source text: The bacterial bioassay method used in the present example to test the anti-viral activity of the compounds against different viral targets was described in detail in PCT/2004/000866, incorporated in its entirety herein by reference. This assay is used in conjunction with the GBV-B and BVDV assays described below, to ensure that all active compounds are identified, some of which are active in one or the other of the assays, while some compounds may be active in both assays.
# Briefly, the bacterial bio-assay for screening potential anti-HCV compounds is based on the HCV p7 ion channel protein. p7 is a small membrane protein encoded by HCV, which has a functional activity supporting viral growth and/or replication.
# The p7-encoding synthetic cDNA fragment cDp7.coli, in which codons were optimised for expression of the p7 protein in E. coli, was cloned into the expression plasmid pPL451, creating the vector pPLp7, in which p7 expression is temperature inducible, as described in detail in PCT/2004/000866. Inhibition of the growth of E. coli cells expressing p7 at 37° C. was observed as an indicator of p7 ion channel function dissipating the normal Na+gradient maintained by the bacterial cells. Halos of growth around a particular compound application site indicate that the compound has inhibited expression of the p7 ion channel activity that prevents growth in the absence of the compound.
# The positive controls were used in this assay to ensure that the assay was working rather than for comparison of relative activities of the compounds.
# [4] = system: bovine viral diarrhea virus (BVDV) strain NADL; settings: well known from the literature; cited from earlier work
# T1 sequence (P27958 747-809): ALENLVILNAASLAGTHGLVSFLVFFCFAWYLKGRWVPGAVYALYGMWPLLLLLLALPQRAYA
Compound,Virus in the culture supernatant (viral RNA copy number) (GBV-B; cells pre-treated with 20 μM),Efficacy when compounds were added post-inoculation (GBV-B; post-treatment versus pre-treatment),TC50 [1],"IC50 ([2]; BVDV in MDBK cells, compound added just prior to infection and maintained, N/A = not achieved, read-out: IC50)","EC50 ([2]; Bovine viral diarrhea virus isolates and strains, MDBK, drug tested individually against BVDV)","EC50 ([2]; Bovine viral diarrhea virus isolates and strains, MDBK, in the presence of 5 IU/ml IFNα, Hill slope constrained)","EC50 ([2]; Bovine viral diarrhea virus isolates and strains, MDBK, in the presence of 5 IU/ml IFNα, variable Hill slope)","EC50 ([2]; Bovine viral diarrhea virus isolates and strains, MDBK, in the presence of 10 IU/ml IFNα, Hill slope constrained)","EC50 ([2]; Bovine viral diarrhea virus isolates and strains, MDBK, in the presence of 10 IU/ml IFNα, variable Hill slope)","inhibition at 0.031 µM ([2]; Bovine viral diarrhea virus isolates and strains, MDBK, 31 nM BIT225 alone)","IC50 ([2]; Bovine viral diarrhea virus isolates and strains, MDBK, Table 2a, read-out: BVDV IC50)","IC50 ([2]; Bovine viral diarrhea virus isolates and strains, MDBK, subsequent repeat assay, read-out: IC50)","IC50 values (in words) ([2]; first experiment, Table 2)",Average Bacterial Assay Score HCV p7 [3],antiviral activity ([2]; 1.25 μg/ml Ribavirin alone),"Antiviral activity on its own ([2]; alone, range up to 20 μg/ml)",activity against BVDV on its own [4]
"Cn1cc(-c2cccc3cc(C(=O)NC(=N)N)ccc23)cn1 [BIT225, 5-(1-methylpyrazol-4-yl)2-naphthoylguanidine]",no virus was detected,reduced somewhat,11600 nM,530 nM,314 nM,92 nM,149 nM,71 nM,125 nM,~5%,1270 nM,330 nM,sub-micromolar,1.20,,,
"NC(=O)c1ncn([C@@H]2O[C@H](CO)[C@@H](O)[C@H]2O)n1 [Ribavirin, reference compound]",,,,,,,,,,,,,,,no antiviral activity,only very little antiviral activity was detected; also recorded: no antiviral activity,very little activity
